Data from patent publication EP3011965B1, “SALVIA MILTIORRHIZA EXTRACT, MICROPELLET FORMULATION THEREOF, METHODS OF PREPARING SAME, AND USES THEREOF” (Tasly Pharmaceutical Group Co., Ltd., priority 2013, dated 2014).
Marks after values point to notes of the source that are not given here.

Tested on: zebra fish high blood lipid model
Experiment: Quantitative evaluation of blood lipid lowering effect in zebra fish high blood lipid model
Format: in vivo, zebra fish of ALBINO strain
Settings: 48 hours after treatment; for Blood lipid reducing rate: 0.081 µg/ml (text: 0.08 µg/ml), vs model group
Method: Animal: Zebra fish embryos were propagated by means of natural pair mating. Each mating, 4∼5 pairs of adult were prepared, and in average, each pair of zebra fish produced 200∼300 embryos. At 6th hour post-fertilization (6hpf) and 24hpf, the embryos were cleaned (removing dead embryo) and qualified embryos were selected according to embryo developing stage (Kimmel et al. 1995). At 28°C, embryos were incubated in fish-farming water, which contained 200mg instant soluble sea salt in 1L reverse osmosis water with conductivity of 480-510 µS/cm, pH of 6.9-7.2, hardness of 53.7-71.6 mg/L CaCO3. Feeding was required since 9 days post-fertilization (9dPf) because the embryos could get nutrients from their own yolk sac. After study, tricaine methane sulfonate (TMS) was used to overexpose the embryos in various developmental stages and the zebra fish were anesthetized and sacrificed. Sacrifice procedure was in light of the sacrifice-under-anesthesia regulatory requirement of AVMA (America Veterinary medical Association).
According to results of part A, the blood lipid lowering effect of Danshen extract in three concentrations was evaluated (usually at MNLC, 1/3MNLC and 1/10 MNLC), and 30 zebra fish treated in each concentration.
High-fat food was used to feed juvenile fish of zebra fish of ALBINO strain to induce zebra fish high blood lipid model.
After feeding, the zebra fish high blood lipid model was treated with tested drug for 48 hours.
Positive drug: lovastatin at 0.08 µg/ml.
After being treated with tested drugs, zebra fish were fat stained with fat-specific colorant.
Fifteen zebra fish were randomly selected in each concentration to observe intensity of zebra fish tail blood fat stain, pictured and saved.
Image -Pro Plus 6.0 image analytical software was used to analyze the image. The signal strength of zebra fish tail blood fat stain (S) was calculated and quantitatively analyzed. The statistical results were expressed as X ± SE. […]

`CC[C@H](C)C(=O)O[C@H]1C[C@@H](C)C=C2C=C[C@H](C)[C@H](CC[C@@H]3C[C@@H](O)CC(=O)O3)[C@H]21` [Lovastatin, lovastatin] was tested, and the “Blood lipid reducing rate” value was 26.3* %, the “Blood lipid reducing rate” value (listed as lovastatin) was 26.3% and the “Tail blood lipid IOD” value (0.081 µg/ml, Mean±SE) was 2142±109.
